In US12319652B2, “Salts and solid forms of (R)-1-(5-methoxy-1H-indol-1-yl)-N,N-dimethylpropan-2-amine” (priority 2021, dated 2025):

Columns and labels:
[1] = Binary solvent evaporation crystallization of Compound 1 HCl
Experimental: A binary solvent evaporation crystallization panel was performed. Separate portions of Compound 1 HCl 50 mg) were dissolved in a primary solvent of water (500 μl per sample) and a secondary solvent—one of either acetone (250 μl, A), acetonitrile (250 μl, B), THF (250 μl, C) and methanol (250 μl, D).
Each vial was capped with aluminium foil, pieced and allowed to stand undisturbed until the evaporation was completed. Experimental details are included in Table 109.

[2] = Suspension equilibration of Compound 1 HCl at 20 and 40° C.
Experimental: The purpose of this panel was to determine if Form A evolves into a supra-ordinate form, the companion panel at 40° C. set-point was in place to detect enantiotropic behavior via different relative proportions in different solvents.
All isolated products, both wet and dry were consistent with Form A at both temperatures.

[3] = Thermocycling of compound 1 Fumarate; conditions: computed by software from the powder pattern
Experimental: Thermocycling in different solvents can promote the formation of alternative polymorphic forms. compound 1·Fumarate was heated and cooled between 20° C. and 75% of the relevant solvent b.p. at 0.5° C./minute, for 5 consecutive cycles; a 10-minute dwell was incorporated at each inflection (refer to Table 63). Thermocycling is ripening technique that encourages particle size enlargement and promotes the evolution of the API into a stable phase. […] The products were analysed both wet and dry to determine if form changes had occurred, all products were consistent with monofumarate Form A (refer to FIGS. 16-19 and FIGS. 88-102).
Compound 1 Fumarate (75 mg, 1 wt) was weighed out in to 4 separate vials and the corresponding solvents (750 ul, 10 vol) from Table were charged.
The suspensions underwent constant amplitude thermocycling at ±0.5° C./min up to 75% of the relevant solvent b.p. and −0.5° C./min down to 20° C. The thermocycle was repeated 5 times (FIGS. 16-19 and 88-102).

[4] = 2-Propanol 5.0 vol, panel at 40° C.
[5] = Acetone 5.0 vol, equilibration at 20° C.
[6] = Acetone 5.0 vol, panel at 40° C.
[7] = Acetone/Water (5% v/v, 0.5 aw) 5.0 vol, equilibration at 20° C.
[8] = Acetonitrile 5.0 vol, panel at 40° C.
[9] = Chlorobenzene 5.0 vol, equilibration at 20° C.
[10] = Chlorobenzene 5.0 vol, panel at 40° C.
[11] = DCM 5.0 vol, equilibration at 20° C.
[12] = EtOAc 5.0 vol, equilibration at 20° C.
[13] = EtOH 5.0 vol, equilibration at 20° C.
[14] = Ethanol 5.0 vol, panel at 40° C.
[15] = Ethyl acetate 5.0 vol, panel at 40° C.
[16] = Ethyl formate 5.0 vol, equilibration at 20° C.
[17] = Ethyl formate 5.0 vol, panel at 40° C.
[18] = Heptane 5.0 vol, equilibration at 20° C.
[19] = Heptane 5.0 vol, panel at 40° C.
[20] = Isopropanol/Water (12% v/v, 0.5 aw) 5.0 vol, equilibration at 20° C.
[21] = Isopropyl acetate 5.0 vol, equilibration at 20° C.
[22] = Isopropyl acetate 5.0 vol, panel at 40° C.
[23] = MEK 5.0 vol, equilibration at 20° C.
[24] = MeCN 5.0 vol, equilibration at 20° C.
[25] = MeOH 5.0 vol, equilibration at 20° C.
[26] = Methanol 5.0 vol, panel at 40° C.
[27] = Methyl acetate 5.0 vol, equilibration at 20° C.
[28] = Methyl acetate 5.0 vol, panel at 40° C.
[29] = Nitromethane 5.0 vol, panel at 40° C.
[30] = TBME 5.0 vol, equilibration at 20° C.
[31] = Toluene 5.0 vol, panel at 40° C.
[32] = Water 5.0 vol, equilibration at 20° C.
[33] = thermocycling in MEK/Heptane (1 to 1)
[34] = thermocycling in Toluene 100.0%

COc1ccc2c(ccn2C[C@@H](C)N(C)C)c1.Cl [Compound 1 HCl]
White paste: Observations (t = 10 d @ 20° C.) [2, 12]
Partial: Observations (t = 1 d @ 20° C.) [2, 20]
Solution: Observations (t = 0 @ 20° C.) [2, 32] | Observations (t = 1 d @ 20° C.) [2, 32] | Observations (t = 0 @ 20° C.) ([2]; Water 5.0 vol, panel at 40° C.)
White Paste: Observations (t = 10 d @ 20° C.) [2, 5] | Observations (t = 10 d @ 20° C.) [2, 24] | Observations (t = 10 d @ 20° C.) [2, 30]
Pink paste: Observations (t = 10 d @ 20° C.) [2, 7] | Observations (t = 10 d @ 20° C.) [2, 11] | Observations (t = 10 d @ 20° C.) [2, 13]
Solid: Observations (t = 14 days @ ambient) ([1]; A: Water 10.0 vol + Acetone 250 μL) | Observations (t = 14 days @ ambient) ([1]; B: Water 10.0 vol + Acetonitrile 250 μL) | Observations (t = 14 days @ ambient) ([1]; C: Water 10.0 vol + THF 250 μL) | Observations (t = 14 days @ ambient) ([1]; D: Water 10.0 vol + Methanol 250 μL)
Yellow susp.: Observations (t = 10 d @ 20° C.) [2, 6]
Orange susp.: Observations (t = 10 d @ 20° C.) ([2]; Water 5.0 vol, panel at 40° C.)
Suspension: Observations (t = 0 @ 20° C.) ([2]; 2-Propanol 5.0 vol, equilibration at 20° C.) | Observations (t = 0 @ 20° C.) [2, 4] | Observations (t = 1 d @ 20° C.) [2, 4] | Observations (t = 0 @ 20° C.) [2, 5] | Observations (t = 1 d @ 20° C.) [2, 5] | Observations (t = 0 @ 20° C.) [2, 6] | Observations (t = 1 d @ 20° C.) [2, 6] | Observations (t = 0 @ 20° C.) [2, 7] | Observations (t = 1 d @ 20° C.) [2, 7] | Observations (t = 0 @ 20° C.) ([2]; Acetone/Water (5% v/v, 0.5 aw) 5.0 vol, panel at 40° C.) | Observations (t = 0 @ 20° C.) [2, 8] | Observations (t = 1 d @ 20° C.) [2, 8] | Observations (t = 0 @ 20° C.) [2, 9] | Observations (t = 1 d @ 20° C.) [2, 9] | Observations (t = 0 @ 20° C.) [2, 10] | Observations (t = 1 d @ 20° C.) [2, 10] | Observations (t = 0 @ 20° C.) [2, 11] | Observations (t = 1 d @ 20° C.) [2, 11] | Observations (t = 0 @ 20° C.) ([2]; DCM 5.0 vol, panel at 40° C.) | Observations (t = 1 d @ 20° C.) ([2]; DCM 5.0 vol, panel at 40° C.) | Observations (t = 0 @ 20° C.) [2, 12] | Observations (t = 1 d @ 20° C.) [2, 12] | Observations (t = 0 @ 20° C.) [2, 13] | Observations (t = 1 d @ 20° C.) [2, 13] | Observations (t = 0 @ 20° C.) [2, 14] | Observations (t = 1 d @ 20° C.) [2, 14] | Observations (t = 0 @ 20° C.) ([2]; Ethanol/Water (15% v/v, 0.5 aw) 5.0 vol, equilibration at 20° C.) | Observations (t = 0 @ 20° C.) [2, 15] | Observations (t = 1 d @ 20° C.) [2, 15] | Observations (t = 0 @ 20° C.) [2, 16] | Observations (t = 1 d @ 20° C.) [2, 16] | Observations (t = 0 @ 20° C.) [2, 17] | Observations (t = 1 d @ 20° C.) [2, 17] | Observations (t = 0 @ 20° C.) [2, 18] | Observations (t = 1 d @ 20° C.) [2, 18] | Observations (t = 0 @ 20° C.) [2, 19] | Observations (t = 1 d @ 20° C.) [2, 19] | Observations (t = 0 @ 20° C.) [2, 20] | Observations (t = 0 @ 20° C.) ([2]; Isopropanol/Water (12% v/v, 0.5 aw) 5.0 vol, panel at 40° C.) | Observations (t = 0 @ 20° C.) [2, 21] | Observations (t = 1 d @ 20° C.) [2, 21] | Observations (t = 0 @ 20° C.) [2, 22] | Observations (t = 1 d @ 20° C.) [2, 22] | Observations (t = 0 @ 20° C.) [2, 23] | Observations (t = 1 d @ 20° C.) [2, 23] | Observations (t = 0 @ 20° C.) ([2]; MEK 5.0 vol, panel at 40° C.) | Observations (t = 1 d @ 20° C.) ([2]; MEK 5.0 vol, panel at 40° C.) | Observations (t = 0 @ 20° C.) [2, 24] | Observations (t = 1 d @ 20° C.) [2, 24] | Observations (t = 0 @ 20° C.) [2, 25] | Observations (t = 1 d @ 20° C.) [2, 25] | Observations (t = 0 @ 20° C.) ([2]; MeTHE 5.0 vol, equilibration at 20° C.) | Observations (t = 0 @ 20° C.) ([2]; MeTHF 5.0 vol, panel at 40° C.) | Observations (t = 1 d @ 20° C.) ([2]; MeTHF 5.0 vol, panel at 40° C.) | Observations (t = 0 @ 20° C.) [2, 26] | Observations (t = 1 d @ 20° C.) [2, 26] | Observations (t = 0 @ 20° C.) [2, 27] | Observations (t = 1 d @ 20° C.) [2, 27] | Observations (t = 0 @ 20° C.) [2, 28] | Observations (t = 1 d @ 20° C.) [2, 28] | Observations (t = 0 @ 20° C.) ([2]; Nitromethane 5.0 vol, equilibration at 20° C.) | Observations (t = 0 @ 20° C.) [2, 29] | Observations (t = 1 d @ 20° C.) [2, 29] | Observations (t = 0 @ 20° C.) [2, 30] | Observations (t = 1 d @ 20° C.) [2, 30] | Observations (t = 0 @ 20° C.) ([2]; THF 5.0 vol, equilibration at 20° C.) | Observations (t = 0 @ 20° C.) ([2]; THF 5.0 vol, panel at 40° C.) | Observations (t = 1 d @ 20° C.) ([2]; THF 5.0 vol, panel at 40° C.) | Observations (t = 0 @ 20° C.) ([2]; Toluene 5.0 vol, equilibration at 20° C.) | Observations (t = 0 @ 20° C.) [2, 31] | Observations (t = 1 d @ 20° C.) [2, 31] | Observations (t = 0 @ 20° C.) ([2]; tBME 5.0 vol, panel at 40° C.) | Observations (t = 1 d @ 20° C.) ([2]; tBME 5.0 vol, panel at 40° C.)

COc1ccc2c(ccn2C[C@@H](C)[NH+](C)C)c1.O=C(O)/C=C/C(=O)O [Compound 1 fumarate, (R)-1-(5-methoxy-1H-indol-1-yl)-N,N-dimethylpropan-2-amine fumarate]
68.1%: XRPD crystallinity (dry, %) [3, 34]
83.2%: XRPD crystallinity (dry, %) [3, 33]
52.4%: XRPD crystallinity (wet, %) [3, 34]
79.0%: XRPD crystallinity (wet, %) ([3]; thermocycling in tBME 100.0%)
81.0%: XRPD crystallinity (dry, %) ([3]; thermocycling in tBME 100.0%)
80.7%: XRPD crystallinity (wet, %) ([3]; thermocycling in iPAC 100.0%)
82.7%: XRPD crystallinity (dry, %) ([3]; thermocycling in iPAC 100.0%)
83.4%: XRPD crystallinity (wet, %) [3, 33]
